One experiment concerns the target T1, Androgen receptor (Homo sapiens, UniProt P10275).
T1 sequence (P10275 whole entry): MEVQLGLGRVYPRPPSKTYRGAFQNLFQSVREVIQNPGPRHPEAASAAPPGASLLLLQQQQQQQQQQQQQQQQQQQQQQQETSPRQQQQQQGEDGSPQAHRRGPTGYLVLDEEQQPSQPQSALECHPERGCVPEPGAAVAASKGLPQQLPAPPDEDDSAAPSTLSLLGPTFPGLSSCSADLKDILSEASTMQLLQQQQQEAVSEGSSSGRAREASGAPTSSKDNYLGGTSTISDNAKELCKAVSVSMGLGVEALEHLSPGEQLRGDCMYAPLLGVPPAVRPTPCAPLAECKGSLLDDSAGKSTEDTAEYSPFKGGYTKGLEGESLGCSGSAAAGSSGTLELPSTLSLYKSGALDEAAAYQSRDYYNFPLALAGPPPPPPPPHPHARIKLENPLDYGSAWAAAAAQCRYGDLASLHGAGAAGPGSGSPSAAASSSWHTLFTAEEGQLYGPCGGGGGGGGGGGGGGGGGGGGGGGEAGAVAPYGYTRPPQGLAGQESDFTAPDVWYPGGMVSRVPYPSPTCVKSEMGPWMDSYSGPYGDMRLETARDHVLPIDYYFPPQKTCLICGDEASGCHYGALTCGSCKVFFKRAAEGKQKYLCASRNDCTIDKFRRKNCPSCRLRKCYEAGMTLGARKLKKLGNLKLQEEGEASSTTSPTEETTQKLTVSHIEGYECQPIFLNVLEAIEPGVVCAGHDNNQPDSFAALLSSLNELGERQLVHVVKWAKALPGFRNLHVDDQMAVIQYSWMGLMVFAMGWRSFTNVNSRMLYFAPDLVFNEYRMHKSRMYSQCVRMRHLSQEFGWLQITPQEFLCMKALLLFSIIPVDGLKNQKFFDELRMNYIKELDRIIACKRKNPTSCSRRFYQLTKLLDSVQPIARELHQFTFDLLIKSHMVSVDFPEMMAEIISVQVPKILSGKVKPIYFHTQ

The next experiment deals with Bile salt export pump (Homo sapiens, UniProt O95342). It is filed as functional.
Sequence of Bile salt export pump (O95342 whole entry): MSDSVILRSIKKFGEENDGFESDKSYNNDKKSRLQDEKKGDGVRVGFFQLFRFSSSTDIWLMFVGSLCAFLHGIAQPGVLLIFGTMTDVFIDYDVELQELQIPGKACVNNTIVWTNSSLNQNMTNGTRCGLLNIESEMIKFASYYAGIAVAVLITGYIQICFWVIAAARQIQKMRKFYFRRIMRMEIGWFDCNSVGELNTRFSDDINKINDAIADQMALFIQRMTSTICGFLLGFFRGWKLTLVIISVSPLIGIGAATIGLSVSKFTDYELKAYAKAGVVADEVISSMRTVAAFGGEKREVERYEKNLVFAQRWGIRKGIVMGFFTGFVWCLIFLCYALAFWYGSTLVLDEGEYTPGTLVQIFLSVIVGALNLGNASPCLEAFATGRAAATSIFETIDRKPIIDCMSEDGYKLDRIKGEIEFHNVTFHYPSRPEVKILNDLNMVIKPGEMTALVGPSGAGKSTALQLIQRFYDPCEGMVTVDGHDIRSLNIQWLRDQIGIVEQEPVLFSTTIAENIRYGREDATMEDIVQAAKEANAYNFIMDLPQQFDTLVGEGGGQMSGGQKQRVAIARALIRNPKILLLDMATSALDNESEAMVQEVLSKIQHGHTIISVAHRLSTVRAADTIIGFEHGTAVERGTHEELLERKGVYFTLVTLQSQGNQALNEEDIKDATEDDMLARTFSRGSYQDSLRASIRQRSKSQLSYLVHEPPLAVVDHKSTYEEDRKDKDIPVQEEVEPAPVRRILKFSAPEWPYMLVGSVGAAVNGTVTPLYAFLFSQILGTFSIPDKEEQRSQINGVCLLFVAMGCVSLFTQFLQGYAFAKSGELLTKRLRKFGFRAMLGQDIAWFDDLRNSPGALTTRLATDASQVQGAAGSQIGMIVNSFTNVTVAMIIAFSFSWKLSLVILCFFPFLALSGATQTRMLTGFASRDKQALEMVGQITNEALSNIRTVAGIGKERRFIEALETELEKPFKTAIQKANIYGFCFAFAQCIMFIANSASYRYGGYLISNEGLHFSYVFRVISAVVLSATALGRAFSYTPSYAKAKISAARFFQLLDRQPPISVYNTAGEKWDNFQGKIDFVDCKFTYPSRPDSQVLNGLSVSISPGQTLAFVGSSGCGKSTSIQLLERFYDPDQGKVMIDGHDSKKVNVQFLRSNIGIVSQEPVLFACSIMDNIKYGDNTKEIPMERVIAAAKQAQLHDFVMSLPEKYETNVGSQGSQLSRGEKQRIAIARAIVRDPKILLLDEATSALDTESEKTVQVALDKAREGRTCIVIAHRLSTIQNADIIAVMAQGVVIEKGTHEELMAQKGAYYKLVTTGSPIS
In experiment [1] the target is T2, Alpha-2A adrenergic receptor (Homo sapiens, UniProt P08913).
T2 sequence (P08913 whole entry): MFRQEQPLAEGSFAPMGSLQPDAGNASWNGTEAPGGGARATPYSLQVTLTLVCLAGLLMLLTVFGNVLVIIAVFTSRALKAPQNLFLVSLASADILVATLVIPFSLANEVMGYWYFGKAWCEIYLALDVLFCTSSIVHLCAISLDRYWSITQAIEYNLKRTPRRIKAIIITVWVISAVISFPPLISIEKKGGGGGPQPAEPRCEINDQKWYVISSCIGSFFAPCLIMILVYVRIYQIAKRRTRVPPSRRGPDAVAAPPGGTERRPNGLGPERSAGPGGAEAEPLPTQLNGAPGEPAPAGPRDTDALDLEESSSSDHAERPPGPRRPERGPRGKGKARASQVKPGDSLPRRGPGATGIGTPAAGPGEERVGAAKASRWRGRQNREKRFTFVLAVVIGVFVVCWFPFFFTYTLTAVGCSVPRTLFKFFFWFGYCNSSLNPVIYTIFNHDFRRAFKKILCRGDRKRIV
It is filed as functional, cell-based.

In experiment [2] the target is T3, 5-hydroxytryptamine receptor 1A (Homo sapiens, UniProt P08908).
T3 sequence (P08908 whole entry): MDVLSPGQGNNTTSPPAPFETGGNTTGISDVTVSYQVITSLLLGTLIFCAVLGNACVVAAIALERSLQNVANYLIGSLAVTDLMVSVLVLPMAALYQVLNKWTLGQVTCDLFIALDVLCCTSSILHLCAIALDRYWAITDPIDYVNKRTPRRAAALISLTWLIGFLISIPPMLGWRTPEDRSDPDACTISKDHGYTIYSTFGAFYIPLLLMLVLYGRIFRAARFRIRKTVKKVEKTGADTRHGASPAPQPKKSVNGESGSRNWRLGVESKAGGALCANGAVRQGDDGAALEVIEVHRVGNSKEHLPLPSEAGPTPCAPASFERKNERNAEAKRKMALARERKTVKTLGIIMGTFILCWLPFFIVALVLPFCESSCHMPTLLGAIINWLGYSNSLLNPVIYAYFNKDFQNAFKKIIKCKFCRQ
Format: functional, cell-based.

Experiment [3] addresses T3, 5-hydroxytryptamine receptor 1A. Format: functional, cell-based. The source holds these as a separate data set.
Experiment [4] deals with T4, Progesterone receptor (Homo sapiens, UniProt P06401).
T4 sequence (P06401 whole entry): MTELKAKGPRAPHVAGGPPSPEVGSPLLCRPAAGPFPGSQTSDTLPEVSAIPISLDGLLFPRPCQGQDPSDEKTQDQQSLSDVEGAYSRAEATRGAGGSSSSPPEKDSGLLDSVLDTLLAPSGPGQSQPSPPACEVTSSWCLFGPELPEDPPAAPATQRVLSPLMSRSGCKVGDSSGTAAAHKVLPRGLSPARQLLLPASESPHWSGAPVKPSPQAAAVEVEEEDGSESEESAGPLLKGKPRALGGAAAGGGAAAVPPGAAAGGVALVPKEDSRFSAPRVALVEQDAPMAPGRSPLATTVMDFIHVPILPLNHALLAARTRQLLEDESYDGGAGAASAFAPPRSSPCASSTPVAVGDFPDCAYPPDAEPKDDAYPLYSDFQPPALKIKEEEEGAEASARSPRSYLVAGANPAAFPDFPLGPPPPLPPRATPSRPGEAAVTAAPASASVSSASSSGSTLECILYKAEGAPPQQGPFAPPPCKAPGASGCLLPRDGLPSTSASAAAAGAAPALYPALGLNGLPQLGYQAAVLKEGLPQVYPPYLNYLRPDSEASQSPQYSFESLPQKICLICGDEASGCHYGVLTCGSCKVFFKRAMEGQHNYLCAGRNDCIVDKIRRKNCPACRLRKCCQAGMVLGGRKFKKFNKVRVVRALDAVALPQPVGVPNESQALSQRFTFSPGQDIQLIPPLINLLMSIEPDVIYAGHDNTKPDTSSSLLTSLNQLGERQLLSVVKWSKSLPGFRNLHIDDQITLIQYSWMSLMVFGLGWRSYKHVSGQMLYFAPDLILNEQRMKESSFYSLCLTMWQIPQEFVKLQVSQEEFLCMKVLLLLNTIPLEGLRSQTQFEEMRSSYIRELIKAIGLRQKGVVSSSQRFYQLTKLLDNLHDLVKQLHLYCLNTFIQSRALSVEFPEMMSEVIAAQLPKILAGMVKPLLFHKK
It is filed as functional.

Experiment [5] addresses T4, Progesterone receptor. It is filed as functional. This is another data set of the same source.
Experiment [6] deals with Sodium-dependent dopamine transporter (Homo sapiens, UniProt Q01959).
Sequence of Sodium-dependent dopamine transporter (Q01959 whole entry): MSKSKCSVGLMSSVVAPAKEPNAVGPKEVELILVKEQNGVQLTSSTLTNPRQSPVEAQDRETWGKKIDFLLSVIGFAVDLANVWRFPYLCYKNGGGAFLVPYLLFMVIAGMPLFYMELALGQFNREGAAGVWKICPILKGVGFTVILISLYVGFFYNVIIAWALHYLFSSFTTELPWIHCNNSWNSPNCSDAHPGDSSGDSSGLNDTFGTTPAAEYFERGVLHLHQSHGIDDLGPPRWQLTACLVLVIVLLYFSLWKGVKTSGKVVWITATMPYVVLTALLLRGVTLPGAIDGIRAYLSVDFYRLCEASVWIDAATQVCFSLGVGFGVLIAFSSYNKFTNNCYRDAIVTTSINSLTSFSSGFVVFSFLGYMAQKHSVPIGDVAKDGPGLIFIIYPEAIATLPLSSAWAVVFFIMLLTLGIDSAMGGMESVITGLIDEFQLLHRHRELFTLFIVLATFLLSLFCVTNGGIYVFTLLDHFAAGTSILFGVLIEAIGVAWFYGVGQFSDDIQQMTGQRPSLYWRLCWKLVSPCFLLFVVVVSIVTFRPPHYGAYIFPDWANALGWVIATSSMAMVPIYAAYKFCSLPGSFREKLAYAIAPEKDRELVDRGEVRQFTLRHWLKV
Experiment [7] deals with Growth hormone secretagogue receptor type 1 (Homo sapiens, UniProt Q92847).
Sequence of Growth hormone secretagogue receptor type 1 (Q92847 whole entry): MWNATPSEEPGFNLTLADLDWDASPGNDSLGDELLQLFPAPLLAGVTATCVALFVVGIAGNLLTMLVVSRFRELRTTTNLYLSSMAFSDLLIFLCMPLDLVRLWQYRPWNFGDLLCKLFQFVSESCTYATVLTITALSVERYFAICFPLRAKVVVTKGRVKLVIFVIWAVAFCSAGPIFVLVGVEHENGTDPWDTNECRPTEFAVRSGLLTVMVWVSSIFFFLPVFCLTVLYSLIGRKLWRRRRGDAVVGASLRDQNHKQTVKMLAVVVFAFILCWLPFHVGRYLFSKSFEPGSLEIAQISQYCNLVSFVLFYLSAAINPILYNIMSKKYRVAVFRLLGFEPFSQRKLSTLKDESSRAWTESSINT

This is an account of results in ChEMBL document CHEMBL5291721, “A preclinical secondary pharmacology resource illuminates target-adverse drug reaction associations of marketed drugs” (Nat Commun, 2023).
Further: assay procedure not described here.

In general, AC50 refers to the concentration at which the activity in the assay is half-maximal. In turn, `CC[C@@H]1C[C@]1(NC(=O)[C@@H]1C[C@@H]2CN1C(=O)[C@H](C(C)(C)C)NC(=O)OCC(C)(C)CCCCc1cccc3c1CN(C3)C(=O)O2)C(=O)NS(=O)(=O)C1CC1` came in with an AC50 at Androgen receptor of more than 30 µM.

With `C=C(C)CNc1ccc(C(C)C(=O)O)cc1` (stereo not drawn) [ALMINOPROFEN], the AC50 on Androgen receptor was more than 30 µM.

Consider `O=C(O)c1ccccc1` [BENZOIC ACID], for which the AC50 on Bile salt export pump amounted to 260 µM.

On to `Nc1c(CC(=O)O)cccc1C(=O)c1ccc(Br)cc1` [BROMFENAC], for which the AC50 at Bile salt export pump came to 88 µM.

Turning to `CC(C)NC(=N)NC(=N)Nc1ccc(Cl)c(Cl)c1` [CHLORPROGUANIL], the AC50 (in experiment [1]; on Androgen receptor; in [2]; in experiment [3]) was more than 30 µM throughout.

Consider `Cc1cc(C2CCCCC2)n(O)c(=O)c1` [CICLOPIROX], for which the AC50 (at Progesterone receptor [4]; on Progesterone receptor [5]; in experiment [6]) was more than 30 µM throughout.

For the compound `C[N+](C)(C)CCOP(=O)(O)OP(=O)([O-])OC[C@H]1O[C@@H](n2ccc(N)nc2=O)[C@H](O)[C@@H]1O` [CITICOLINE], the AC50 (in [1]; at Androgen receptor; in experiment [2]) was more than 30 µM throughout.

Consider `CCC(=O)O[C@]1(C(=O)CCl)[C@@H](C)C[C@H]2[C@@H]3CCC4=CC(=O)C=C[C@]4(C)[C@@]3(F)[C@@H](O)C[C@@]21C` [CLOBETASOL PROPIONATE], for which the AC50 was 23 µM on Bile salt export pump; more than 30 µM in experiment [1]; more than 30 µM in [7]; more than 30 µM in [2]; 0.053 µM at Progesterone receptor [4]; more than 30 µM in experiment [6].

With `C[C@H]1O[C@@H](O[C@H]2CC[C@@]3(C)[C@H](CC[C@@H]4[C@@H]3C[C@@H](O)[C@]3(C)[C@@H](C5=CC(=O)OC5)CC[C@]43O)C2)C[C@H](O)[C@@H]1O[C@H]1C[C@H](O)[C@H](O[C@H]2C[C@H](O)[C@H](O[C@@H]3O[C@H](CO)[C@@H](O)[C@H](O)[C@H]3O)[C@@H](C)O2)[C@@H](C)O1` [DESLANOSIDE], the AC50 on Androgen receptor is more than 30 µM.

With `CN[C@@H]1[C@H](O[C@H]2[C@H](O[C@H]3[C@H](O)[C@@H](O)[C@H](NC(=N)N)[C@@H](O)[C@@H]3NC(=N)N)O[C@@H](C)[C@]2(O)CO)O[C@@H](CO)[C@H](O)[C@H]1O` [DIHYDROSTREPTOMYCIN], on Androgen receptor, the AC50 was more than 30 µM.

Turning to `O=C(O)Cc1ccccc1Oc1ccc(Cl)cc1Cl` [FENCLOFENAC], the AC50 in experiment [1] is more than 10 µM; in [7], more than 30 µM; in experiment [2], more than 10 µM; in experiment [3], more than 10 µM; in [6], more than 10 µM.

In the case of `CC(C(=O)O)c1cccc(Oc2ccccc2)c1` (stereo not drawn) [FENOPROFEN], the AC50 on Bile salt export pump was more than 300 µM.

The compound `CC(C)C(=O)Oc1ccc(CO)cc1[C@H](CCN(C(C)C)C(C)C)c1ccccc1` [FESOTERODINE] returned an AC50 at Androgen receptor of more than 30 µM.

`C#C[C@]1(O)C=C[C@H]2[C@@H]3CCC4=CC(=O)CC[C@@H]4[C@H]3CC[C@@]21CC` [GESTODENE] yielded an AC50 at Androgen receptor of 0.003 µM.

Consider `COc1ccccc1OC1(C)OC(=O)c2ccccc2O1` (stereo not drawn) [GUAIMESAL], for which the AC50 (at Androgen receptor; in experiment [7]; on Progesterone receptor [4]; at Progesterone receptor [5]; in experiment [6]) was more than 30 µM each time.

`N=C(N)N/N=C/c1c(Cl)cccc1Cl` [GUANABENZ] showed an AC50 at Androgen receptor of more than 30 µM.

As for `CCCCC(CC)CN1CN(CC(CC)CCCC)CC(C)(N)C1` (stereo not drawn) [HEXETIDINE], the AC50 at Androgen receptor is more than 30 µM.

For `Cc1cc(=O)oc2cc(O)ccc12` [HYMECROMONE], on Bile salt export pump, the AC50 is more than 300 µM.

On Androgen receptor, `CC(C)[C@@H]1CC[C@@H](C)C[C@H]1O` [LEVOMENTHOL] gave a concentration at half-maximal activity (AC50) of more than 30 µM.

Compound `COC(=O)[C@@H](N)Cc1ccc(O)c(O)c1` [MELEVODOPA] came in with an AC50 at Androgen receptor of more than 30 µM.

Regarding `C[N+]1(C)CCCC(OC(=O)C(O)(c2ccccc2)c2ccccc2)C1` (stereo not drawn) [MEPENZOLATE], the AC50 at Bile salt export pump is more than 300 µM.

On to `CC[C@@H](CO)NC(=O)[C@@H]1C=C2c3cccc4c3c(cn4C)C[C@H]2N(C)C1` [METHYSERGIDE], for which the AC50 on Bile salt export pump is 180 µM; in experiment [1] it was more than 10 µM; in [7], more than 30 µM; in [2], 0.2 µM; in experiment [6], more than 30 µM.

`CCNC(=O)/C=C(C)/C=C/C=C(C)/C=C/c1c(C)cc(OC)c(C)c1C` [MOTRETINIDE]: at Androgen receptor, the AC50 was more than 30 µM.

`CCCCC1C(=O)N(c2ccccc2)N(c2ccc(O)cc2)C1=O` (stereo not drawn) [OXYPHENBUTAZONE ANHYDROUS]: the AC50 on Androgen receptor is more than 30 µM.

On to `Nc1cccc2c1C(=O)N(C1CCC(=O)NC1=O)C2=O` (stereo not drawn) [POMALIDOMIDE], for which, at Androgen receptor, the AC50 was more than 30 µM.

For the compound `C[N+](C)(C)CCOC(=O)CCC(=O)OCC[N+](C)(C)C` [SUXAMETHONIUM], the AC50 on Bile salt export pump was more than 300 µM.

`Cc1ccsc1C(=CCCN1CCC[C@@H](C(=O)O)C1)c1sccc1C` [TIAGABINE] yielded a half-maximal activity concentration (AC50) at Androgen receptor of more than 30 µM.

In the case of `Cc1ccccc1C(=O)Nc1ccc(C(=O)N2CCCC(O)c3cc(Cl)ccc32)c(C)c1` (stereo not drawn) [TOLVAPTAN], the AC50 on Bile salt export pump stood at 7.87 µM.

Regarding `CC(C)C[C@H](NC(=O)[C@@H](O)[C@H](N)Cc1ccccc1)C(=O)O` [UBENIMEX], the AC50 (in experiment [1]; in experiment [2]; in [3]; on Progesterone receptor [4]; at Progesterone receptor [5]; in [6]) was more than 30 µM in each case.

On Androgen receptor, `CC[C@]12CCCN3CCc4c(n(c5ccccc45)[C@@](O)(C(=O)OC)C1)[C@@H]32` [VINCAMINE] showed a half-maximal activity concentration (AC50) of more than 30 µM.

Turning to `O=C1Cc2cc(CCN3CCN(c4nsc5ccccc45)CC3)c(Cl)cc2N1` [ZIPRASIDONE], the concentration at half-maximal activity (AC50) is 18 µM on Bile salt export pump, more than 30 µM in experiment [7], 0.95 µM in [2] and 5.11 µM in experiment [6].
